Data: ChEMBL document CHEMBL5303762, “Data for DCP probe BI-8668” (2023)
Active and inactive are the calls of the source. No cut-off for these calls is given here.

How the values were obtained:
[1] = target: Beta-2 adrenergic receptor (Homo sapiens) (UniProt P07550); experiment: BETA2/HUM Eurofins SafetyScreen44 (BI); conditions: filed as antagonist, Compound concentration 10.0 uM
[2] = target: Alpha-2B adrenergic receptor (Homo sapiens) (UniProt P18089); conditions: Compound concentration 10.0 uM
[3] = target: Histamine H1 receptor (Homo sapiens) (UniProt P35367); experiment: H1/PYRIL/HS Eurofins SafetyScreen44 (BI); conditions: Compound concentration 10.0 uM
[4] = target: Sigma non-opioid intracellular receptor 1 (Homo sapiens) (UniProt Q99720); conditions: Compound concentration 10.0 uM
[5] = target: Endothelin-1 receptor (Homo sapiens) (UniProt P25101); experiment: ETA/H Eurofins SafetyScreen44 (BI); conditions: Compound concentration 10.0 uM
[6] = target: D(1A) dopamine receptor (Homo sapiens) (UniProt P21728); experiment: D1/H Eurofins SafetyScreen44 (BI); conditions: filed as antagonist, Compound concentration 10.0 uM
[7] = target: L-type calcium channel alpha-1C (dihydropyridine site) (Rattus norvegicus, UniProt P22002); experiment: CA+/DHPSI/R Eurofins SafetyScreen44 (BI); conditions: compound concentration 10 uM, read-out: % Ctrl
[8] = target: cGMP-inhibited 3',5'-cyclic phosphodiesterase 3A (Homo sapiens) (UniProt Q14432); experiment: PDE3A Eurofins SafetyScreen44 (BI); conditions: Compound concentration 10.0 uM
[9] = target: Beta-1 adrenergic receptor (Homo sapiens) (UniProt P08588); experiment: BETA1/HUM Eurofins SafetyScreen44 (BI); conditions: Compound concentration 10.0 uM
[10] = target: Neuronal acetylcholine receptor; alpha4/beta2 (Homo sapiens) (UniProt P17787+P43681); experiment: N_NEURO_A4B2 Eurofins SafetyScreen44 (BI); assay type: protein-complex assay; conditions: filed as agonist, Compound concentration 10.0 uM
[11] = target: voltage-gated potassium channel (IKs; KCNQ1/KCNE1 as curated) (Rattus norvegicus, UniProt P15383+Q9Z0N7); experiment: K+/VOLT/RA Eurofins SafetyScreen44 (BI); assay type: protein-complex assay; conditions: compound concentration 10 uM, read-out: % Ctrl
[12] = target: D(2) dopamine receptor (Homo sapiens) (UniProt P14416); experiment: D2SH_AGON Eurofins SafetyScreen44 (BI); conditions: filed as agonist, Compound concentration 10.0 uM
[13] = target: 3',5'-cyclic-AMP phosphodiesterase 4D (Homo sapiens) (UniProt Q08499); experiment: PDE4D2 Eurofins SafetyScreen44 (BI); conditions: Compound concentration 10.0 uM
[14] = target: 5-hydroxytryptamine receptor 2A (Homo sapiens) (UniProt P28223); experiment: 5HT2AH_AGON Eurofins SafetyScreen44 (BI); conditions: filed as agonist, Compound concentration 10.0 uM
[15] = target: Sodium-dependent noradrenaline transporter (Homo sapiens) (UniProt P23975); experiment: NEUP/H Eurofins SafetyScreen44 (BI); conditions: Compound concentration 10.0 uM
[16] = target: Tyrosine-protein kinase Lck (Homo sapiens) (UniProt P06239); experiment: LCK_CE Eurofins SafetyScreen44 (BI); conditions: Compound concentration 10.0 uM
[17] = target: Amiloride-sensitive sodium channel, ENaC (Homo sapiens, UniProt P37088+P51168+P51170); experiment: Inhibition of Na+ current by Ussing Chamber; assay type: functional, tissue-based, epithelium
[18] = target: Histamine H4 receptor (Homo sapiens) (UniProt Q9H3N8); conditions: Compound concentration 10.0 uM
[19] = target: voltage-gated sodium channel (site 2) (Rattus norvegicus, UniProt F1LQQ7+O08562+O88420+O88457+P04774+P04775+P08104+P15389+P15390+Q62968); experiment: NA+/SITE2/R Eurofins SafetyScreen44 (BI); assay type: protein assay; conditions: compound concentration 10 uM, read-out: % Ctrl
[20] = target: Adenosine receptor A2a (Homo sapiens) (UniProt P29274); experiment: A2A/H Eurofins SafetyScreen44 (BI); conditions: filed as antagonist, Compound concentration 10.0 uM
[21] = target: Sodium-dependent dopamine transporter (Homo sapiens) (UniProt Q01959); experiment: DATRANS/HUM Eurofins SafetyScreen44 (BI); conditions: Compound concentration 10.0 uM
[22] = target: T1, Alpha-2A adrenergic receptor (Homo sapiens) (UniProt P08913); experiment: ALPHA2A/HU Eurofins SafetyScreen44 (BI); conditions: Compound concentration 10.0 uM
T1 sequence (whole entry): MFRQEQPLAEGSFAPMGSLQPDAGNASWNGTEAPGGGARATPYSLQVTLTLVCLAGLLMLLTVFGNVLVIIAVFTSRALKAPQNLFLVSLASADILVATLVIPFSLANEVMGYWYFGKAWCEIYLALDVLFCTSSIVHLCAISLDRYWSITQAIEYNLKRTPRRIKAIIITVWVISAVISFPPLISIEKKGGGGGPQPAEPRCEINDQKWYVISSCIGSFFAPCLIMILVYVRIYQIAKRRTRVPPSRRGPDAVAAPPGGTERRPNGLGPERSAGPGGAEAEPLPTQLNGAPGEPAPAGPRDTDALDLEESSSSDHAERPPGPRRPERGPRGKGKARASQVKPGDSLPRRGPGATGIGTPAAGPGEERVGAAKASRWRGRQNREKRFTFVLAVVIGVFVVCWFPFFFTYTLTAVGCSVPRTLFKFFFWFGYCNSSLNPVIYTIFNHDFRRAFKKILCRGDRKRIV

[23] = target: Mu-type opioid receptor (Homo sapiens) (UniProt P35372); experiment: MU/H Eurofins SafetyScreen44 (BI); conditions: Compound concentration 10.0 uM
[24] = target: 5-hydroxytryptamine receptor 2B (Homo sapiens) (UniProt P41595); experiment: 5HT2B/H AG Eurofins SafetyScreen44 (BI); conditions: filed as agonist, Compound concentration 10.0 uM
[25] = target: Sodium-dependent serotonin transporter (Homo sapiens) (UniProt P31645); experiment: SLC6A4/H Eurofins SafetyScreen44 (BI); conditions: filed as antagonist, Compound concentration 10.0 uM
[26] = target: D(3) dopamine receptor (Homo sapiens) (UniProt P35462); conditions: Compound concentration 10.0 uM
hERG (KCNH2) = hERG (KCNH2) (Homo sapiens, UniProt Q12809); experiment: HERG_DOFETILIDE Eurofins SafetyScreen44 (BI); conditions: probe dofetilide, compound concentration 10 uM, read-out: % Ctrl
[27] = target: T2, 5-hydroxytryptamine receptor 3A (Homo sapiens) (UniProt P46098); experiment: 5HT3/H Eurofins SafetyScreen44 (BI); conditions: Compound concentration 10.0 uM
T2 sequence (whole entry): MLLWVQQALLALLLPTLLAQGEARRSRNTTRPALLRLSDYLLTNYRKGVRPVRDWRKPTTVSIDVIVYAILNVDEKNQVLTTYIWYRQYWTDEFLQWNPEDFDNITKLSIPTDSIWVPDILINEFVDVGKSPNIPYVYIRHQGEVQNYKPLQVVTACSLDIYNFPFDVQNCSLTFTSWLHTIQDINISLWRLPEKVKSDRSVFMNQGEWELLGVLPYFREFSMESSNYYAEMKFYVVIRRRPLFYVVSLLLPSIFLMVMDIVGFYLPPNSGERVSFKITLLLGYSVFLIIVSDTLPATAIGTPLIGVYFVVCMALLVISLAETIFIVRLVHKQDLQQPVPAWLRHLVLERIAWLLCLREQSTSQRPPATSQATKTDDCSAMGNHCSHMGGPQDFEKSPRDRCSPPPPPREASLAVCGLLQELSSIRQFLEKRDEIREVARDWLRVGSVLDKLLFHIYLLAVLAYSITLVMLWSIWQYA

[28] = target: Vasopressin V1a receptor (Homo sapiens) (UniProt P37288); experiment: V1A/HUM Eurofins SafetyScreen44 (BI); conditions: Compound concentration 10.0 uM
[29] = target: Prostaglandin G/H synthase 1 (Homo sapiens) (UniProt P23219); experiment: COX-1 Eurofins SafetyScreen44 (BI); conditions: Compound concentration 10.0 uM

Mu-type opioid receptor (Homo sapiens), sequence (P35372 whole entry): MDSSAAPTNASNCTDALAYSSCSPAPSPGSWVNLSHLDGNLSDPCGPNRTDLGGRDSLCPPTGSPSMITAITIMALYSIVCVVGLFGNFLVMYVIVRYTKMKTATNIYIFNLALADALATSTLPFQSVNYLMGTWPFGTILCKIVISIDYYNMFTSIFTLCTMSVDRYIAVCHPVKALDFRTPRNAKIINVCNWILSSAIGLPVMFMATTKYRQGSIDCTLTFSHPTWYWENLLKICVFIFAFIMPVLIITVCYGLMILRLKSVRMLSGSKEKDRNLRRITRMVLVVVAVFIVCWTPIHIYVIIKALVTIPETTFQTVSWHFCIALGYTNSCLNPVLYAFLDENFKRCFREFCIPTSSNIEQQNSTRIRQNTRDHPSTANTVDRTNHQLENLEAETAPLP
5-hydroxytryptamine receptor 2B (Homo sapiens), sequence (P41595 whole entry): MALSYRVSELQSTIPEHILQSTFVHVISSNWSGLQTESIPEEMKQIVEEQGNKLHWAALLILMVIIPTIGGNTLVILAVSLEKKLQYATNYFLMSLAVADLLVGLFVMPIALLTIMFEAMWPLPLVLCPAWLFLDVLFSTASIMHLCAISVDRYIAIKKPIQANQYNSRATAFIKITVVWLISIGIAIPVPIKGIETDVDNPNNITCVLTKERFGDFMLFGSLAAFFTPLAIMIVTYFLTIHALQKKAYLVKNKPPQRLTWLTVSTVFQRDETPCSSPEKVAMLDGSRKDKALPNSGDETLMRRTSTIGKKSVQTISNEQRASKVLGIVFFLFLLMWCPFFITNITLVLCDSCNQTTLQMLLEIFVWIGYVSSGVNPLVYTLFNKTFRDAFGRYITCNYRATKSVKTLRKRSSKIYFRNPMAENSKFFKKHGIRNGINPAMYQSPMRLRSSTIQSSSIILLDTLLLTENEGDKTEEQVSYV
Sodium-dependent serotonin transporter (Homo sapiens), sequence (P31645 whole entry, looked up): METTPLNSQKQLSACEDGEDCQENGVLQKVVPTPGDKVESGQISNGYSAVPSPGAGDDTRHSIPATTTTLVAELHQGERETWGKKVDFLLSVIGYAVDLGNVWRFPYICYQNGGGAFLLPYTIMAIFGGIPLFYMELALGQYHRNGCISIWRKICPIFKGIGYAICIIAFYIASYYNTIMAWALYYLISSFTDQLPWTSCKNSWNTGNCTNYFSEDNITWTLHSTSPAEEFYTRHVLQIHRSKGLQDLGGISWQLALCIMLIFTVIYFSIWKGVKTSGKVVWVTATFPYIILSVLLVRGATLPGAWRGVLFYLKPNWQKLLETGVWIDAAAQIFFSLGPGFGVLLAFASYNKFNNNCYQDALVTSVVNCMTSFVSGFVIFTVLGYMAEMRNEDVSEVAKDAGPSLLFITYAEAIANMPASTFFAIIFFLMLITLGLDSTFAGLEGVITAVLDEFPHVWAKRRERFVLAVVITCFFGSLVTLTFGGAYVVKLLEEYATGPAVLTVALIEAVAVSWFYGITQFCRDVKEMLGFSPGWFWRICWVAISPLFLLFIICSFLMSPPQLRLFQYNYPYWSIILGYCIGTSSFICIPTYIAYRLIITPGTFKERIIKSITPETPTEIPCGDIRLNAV
hERG (KCNH2), sequence (Q12809 whole entry): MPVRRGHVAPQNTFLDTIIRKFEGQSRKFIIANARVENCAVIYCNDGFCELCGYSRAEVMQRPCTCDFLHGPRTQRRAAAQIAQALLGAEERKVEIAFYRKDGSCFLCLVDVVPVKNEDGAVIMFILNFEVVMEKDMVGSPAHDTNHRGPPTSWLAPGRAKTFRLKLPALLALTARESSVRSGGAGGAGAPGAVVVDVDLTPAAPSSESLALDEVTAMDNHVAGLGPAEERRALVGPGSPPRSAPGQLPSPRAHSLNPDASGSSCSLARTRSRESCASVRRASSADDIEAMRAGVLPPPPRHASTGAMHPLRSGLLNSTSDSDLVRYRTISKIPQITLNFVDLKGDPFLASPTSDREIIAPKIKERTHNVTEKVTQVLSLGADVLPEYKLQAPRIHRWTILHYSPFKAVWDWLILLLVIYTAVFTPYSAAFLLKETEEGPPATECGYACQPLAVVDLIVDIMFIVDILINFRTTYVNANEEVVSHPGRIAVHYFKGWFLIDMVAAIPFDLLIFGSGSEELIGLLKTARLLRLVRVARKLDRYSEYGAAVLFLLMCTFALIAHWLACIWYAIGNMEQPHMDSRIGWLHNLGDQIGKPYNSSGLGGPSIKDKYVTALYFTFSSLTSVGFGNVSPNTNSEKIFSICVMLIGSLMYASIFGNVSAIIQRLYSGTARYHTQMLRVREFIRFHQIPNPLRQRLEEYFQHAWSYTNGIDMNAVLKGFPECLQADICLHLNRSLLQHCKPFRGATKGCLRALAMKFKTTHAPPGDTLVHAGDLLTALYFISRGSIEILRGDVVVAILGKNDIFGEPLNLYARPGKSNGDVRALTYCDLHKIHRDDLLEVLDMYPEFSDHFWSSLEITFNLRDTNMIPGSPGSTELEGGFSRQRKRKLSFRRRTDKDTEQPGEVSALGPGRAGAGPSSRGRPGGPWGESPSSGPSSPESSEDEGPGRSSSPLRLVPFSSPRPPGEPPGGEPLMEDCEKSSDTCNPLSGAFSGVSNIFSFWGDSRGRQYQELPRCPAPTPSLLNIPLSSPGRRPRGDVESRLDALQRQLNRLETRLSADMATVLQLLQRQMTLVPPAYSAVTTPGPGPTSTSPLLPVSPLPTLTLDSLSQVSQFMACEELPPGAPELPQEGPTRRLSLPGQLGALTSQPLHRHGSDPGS
Beta-1 adrenergic receptor (Homo sapiens), sequence (P08588 whole entry, looked up): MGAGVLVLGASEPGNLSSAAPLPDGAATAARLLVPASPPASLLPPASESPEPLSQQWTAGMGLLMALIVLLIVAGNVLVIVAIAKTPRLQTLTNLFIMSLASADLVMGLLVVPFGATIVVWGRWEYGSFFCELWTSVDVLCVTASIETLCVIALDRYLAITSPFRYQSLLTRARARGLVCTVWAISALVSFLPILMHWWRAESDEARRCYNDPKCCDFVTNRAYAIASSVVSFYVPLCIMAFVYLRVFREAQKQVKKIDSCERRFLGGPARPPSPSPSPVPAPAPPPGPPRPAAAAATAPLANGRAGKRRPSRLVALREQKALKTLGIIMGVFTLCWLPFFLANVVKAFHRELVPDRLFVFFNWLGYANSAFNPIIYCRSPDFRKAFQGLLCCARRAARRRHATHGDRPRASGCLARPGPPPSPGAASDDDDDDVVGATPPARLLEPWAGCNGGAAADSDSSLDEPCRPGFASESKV
5-hydroxytryptamine receptor 2A (Homo sapiens), sequence (P28223 whole entry): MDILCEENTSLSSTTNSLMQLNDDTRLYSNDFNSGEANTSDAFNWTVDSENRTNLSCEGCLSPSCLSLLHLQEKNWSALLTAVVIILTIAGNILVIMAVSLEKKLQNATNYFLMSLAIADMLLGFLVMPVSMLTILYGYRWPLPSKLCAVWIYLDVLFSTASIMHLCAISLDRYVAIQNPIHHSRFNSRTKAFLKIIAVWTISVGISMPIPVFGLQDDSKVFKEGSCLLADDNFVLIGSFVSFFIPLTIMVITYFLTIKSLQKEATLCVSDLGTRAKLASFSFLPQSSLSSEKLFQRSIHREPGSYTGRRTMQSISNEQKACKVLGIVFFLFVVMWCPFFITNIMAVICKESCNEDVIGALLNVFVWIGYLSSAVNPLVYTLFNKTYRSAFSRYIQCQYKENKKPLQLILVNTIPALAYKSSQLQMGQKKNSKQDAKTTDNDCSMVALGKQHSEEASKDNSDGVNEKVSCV
Tyrosine-protein kinase Lck (Homo sapiens), sequence (P06239 2-509 limits assumed): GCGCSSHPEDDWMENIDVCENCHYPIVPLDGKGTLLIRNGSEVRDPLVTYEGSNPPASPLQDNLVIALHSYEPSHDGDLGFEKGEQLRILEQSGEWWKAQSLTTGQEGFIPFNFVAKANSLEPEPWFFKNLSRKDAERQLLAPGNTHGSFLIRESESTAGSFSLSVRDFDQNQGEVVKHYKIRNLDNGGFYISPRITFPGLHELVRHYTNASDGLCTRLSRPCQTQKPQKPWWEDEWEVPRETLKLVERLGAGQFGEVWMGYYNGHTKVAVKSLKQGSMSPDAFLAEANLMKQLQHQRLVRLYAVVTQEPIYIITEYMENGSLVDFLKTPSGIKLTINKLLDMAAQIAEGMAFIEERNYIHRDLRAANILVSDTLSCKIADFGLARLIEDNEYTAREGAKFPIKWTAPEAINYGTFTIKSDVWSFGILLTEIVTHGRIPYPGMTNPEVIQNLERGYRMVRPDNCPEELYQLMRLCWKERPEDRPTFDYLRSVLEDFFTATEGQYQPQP
D(1A) dopamine receptor (Homo sapiens), sequence (P21728 whole entry): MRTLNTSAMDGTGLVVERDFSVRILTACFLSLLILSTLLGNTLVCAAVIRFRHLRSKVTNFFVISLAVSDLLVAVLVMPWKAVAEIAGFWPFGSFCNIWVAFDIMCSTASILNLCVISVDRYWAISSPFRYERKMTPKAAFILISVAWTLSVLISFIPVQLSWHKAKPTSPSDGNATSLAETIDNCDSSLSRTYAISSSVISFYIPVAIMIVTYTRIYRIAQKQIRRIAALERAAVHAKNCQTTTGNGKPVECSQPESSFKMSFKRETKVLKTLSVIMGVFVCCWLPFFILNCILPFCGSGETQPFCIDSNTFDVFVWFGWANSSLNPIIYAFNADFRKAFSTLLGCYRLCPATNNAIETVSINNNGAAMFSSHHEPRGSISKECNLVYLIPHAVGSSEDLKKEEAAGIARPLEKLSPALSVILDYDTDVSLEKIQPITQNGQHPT
Histamine H4 receptor (Homo sapiens), sequence (Q9H3N8 whole entry): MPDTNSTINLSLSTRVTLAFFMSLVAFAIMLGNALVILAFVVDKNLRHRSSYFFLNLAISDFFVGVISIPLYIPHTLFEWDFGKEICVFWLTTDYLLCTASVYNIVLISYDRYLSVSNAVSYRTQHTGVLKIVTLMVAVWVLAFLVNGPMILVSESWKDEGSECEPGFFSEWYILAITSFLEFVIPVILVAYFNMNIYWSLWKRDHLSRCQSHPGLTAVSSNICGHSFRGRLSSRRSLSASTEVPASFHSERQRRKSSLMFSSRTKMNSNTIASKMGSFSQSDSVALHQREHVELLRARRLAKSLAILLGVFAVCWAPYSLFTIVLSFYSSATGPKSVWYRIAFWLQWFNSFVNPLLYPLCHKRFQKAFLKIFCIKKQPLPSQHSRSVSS

Structure (SMILES) | residual activity [1] [%] | residual activity [3] [%] | residual activity [5] [%] | residual activity [6] [%] | activity at 10 µM [7] | residual activity [8] [%] | residual activity [9] [%] | residual activity [10] [%] | activity at 10 µM [11] | residual activity [12] [%] | residual activity [13] [%] | residual activity [14] [%] | residual activity [15] [%] | residual activity [16] [%] | IC50 [17] | activity at 10 µM [19] | residual activity [20] [%] | residual activity [21] [%] | residual activity [22] [%] | residual activity [23] [%] | further results
CCn1c(CNC(=O)c2nc(Cl)cnc2N)[n+](CC)c2ccc(C(=O)N(C)CCN(C)C)cc21 | 94 | 101 | 100 | 103 | 89% (not active) | 100 | 97 | 101 | 99% (not active) | 101 | 99 | 97 | 105 | 95 | 0.017 µM (active) | 66% (not active) | 110 | 83 | 112 | 95 | inhibition [2]: 0.45%; inhibition [4]: 20%; inhibition [18]: -7.37%; residual activity [24]: 92%; residual activity [25]: 97%; inhibition [26]: 8.95%; activity at 10 µM (hERG (KCNH2)): 91% (not active); residual activity [27]: 101%; residual activity [28]: 109%
CCn1c(CNC(=O)c2ncc(C)nc2N)[n+](CC)c2ccc(C(=O)N(C)CN(C)C)cc21 | 104 | 94 | 104 | 102 | 87% (not active) | 87 | 105 | 103 | 103% (not active) | 79 | 87 | 91 | 91 | 60 | > 10 µM (not active) | 87% (not active) | 105 | 90 | 97 | 95 | residual activity [29]: 84%; residual activity [24]: 61%; residual activity [25]: 31%; activity at 10 µM (hERG (KCNH2)): 81% (not active); residual activity [27]: 99%; residual activity [28]: 107%
